Measured values: patent publication US20170157212A1, “CDK MODULATORS AND METHODS FOR THE TREATMENT OF CANCER” (Salk Institute for Biological Studies, priority 2015, published 2017)
“Also recorded” adds a separate entry of the source.

Assays:
CDK12 = assay: In vitro kinase assay: CDK12 phosphorylation of recombinant 4E-BP1 (S65, T70); format: biochemical, human; details: reactions with CDK12 and mTORC1/Raptor, dose-dependent
Excerpt: (A) CRIF1 and CDK12 have opposite effects on global RNAPII CTD-Ser2P levels in vivo. U2OS cells were transfected with indicated siRNAs for 48 hr, and RNAPII phosphorylation was monitored by immunoblot using phospho-specific CTD (Ser2P and Ser5P) antibodies. (B) Knockdown of CRIF1 up-regulates CHK1 expression and induction of p53. […] (C) Analysis of steady-state mRNA levels by qRT-PCR in extracts from U2OS cells exposed to control (CTL) or CRIF1-specific siRNAs, as indicated. (D) Depletion of CRIF1 enhances 4E-BP1 phosphorylation at S65 and T70 in vivo, as assessed by immunoblot using phospho-specific antibodies. (E) CRIF1 inhibits RNAPII CTD-Ser2 phosphorylation by CDK12 complexes in vitro. The human GST-CTD (52 repeat) protein was incubated in vitro with the affinity-purified HA-CDK12 kinase complex in the absence or presence of increasing levels of purified recombinant CRIF1, and analyzed by immunoblot with the indicated antisera. […] Analysis of GST-CTD Ser2 phosphorylation was carried out as described in (E), using the affinity-purified FLAG-CDK9 kinase. (G) CRIF1 inhibits 4E-BP1 phosphorylation by CDK12 in vitro. […] was monitored by immunoblot in the absence or in the presence of different levels of affinity-purified recombinant CRIF1. […]

CDK2 = target: T1, CDK2 (Homo sapiens, UniProt P24941); assay: Co-immunoprecipitation of CRIF1 with CDK2; format: binding
T1 construct: endogenous in cells
Excerpt: (§1) FIGS. 5A-5I. The Mitochondrial OX-PHOS Regulator, CRIF1, is a Novel Subunit of the Human CDK12 Kinase Complex. (A) Identification of CRIF1 as a near-stoichiometric subunit of the native CDK12 kinase complex. MudPIT analysis of CDK12 complexes from HEK293 cells that stably express HA-tagged full-length human CDK12. The HA-CDK12 complex was affinity-purified using anti-HA antibody and visualized by SDS-PAGE and silver-stain. (B) List of the identified proteins in the HA-CDK12 complex from (A). (C) Endogenous CRIF1 co-immunoprecipitates with native CDK12 in U2OS cell extracts. Shown is an immunoblot analysis of CRIF1, CCNK, and the chaperone proteins CDC37 and HSP90 in an anti-CDK12 immunoprecipitate. (D) CRIF1 is a specific subunit of the CDK12 complex. Native CRIF1 was immunoprecipitated from U2OS cells using an anti-CRIF1 antibody and analyzed by co-immunoprecipitation for association with various CDKs, as indicated. […] FLAG-CRIF1 proteins containing different C-terminal truncations were co-expressed with HA-CDK12 (aa 985-1490) and analyzed for binding by co-immunoprecipitation and immunoblot. […] Cell viability was analyzed after 72 hr. […] Expression of the mitochondrial MTCO-1 (COX1) protein was assessed using two different antisera. […] Each fraction (T; total, C:cytosolic, M:membrane/organelle, and N:nuclear) was analyzed by immunoblot using the indicated antibodies. […]

CDK9 = target: T2, CDK9 (Homo sapiens, UniProt P50750); assay: Co-immunoprecipitation of CRIF1 with CDK9; format: binding
T2 construct: endogenous in cells
T2 sequence (P50750 whole entry): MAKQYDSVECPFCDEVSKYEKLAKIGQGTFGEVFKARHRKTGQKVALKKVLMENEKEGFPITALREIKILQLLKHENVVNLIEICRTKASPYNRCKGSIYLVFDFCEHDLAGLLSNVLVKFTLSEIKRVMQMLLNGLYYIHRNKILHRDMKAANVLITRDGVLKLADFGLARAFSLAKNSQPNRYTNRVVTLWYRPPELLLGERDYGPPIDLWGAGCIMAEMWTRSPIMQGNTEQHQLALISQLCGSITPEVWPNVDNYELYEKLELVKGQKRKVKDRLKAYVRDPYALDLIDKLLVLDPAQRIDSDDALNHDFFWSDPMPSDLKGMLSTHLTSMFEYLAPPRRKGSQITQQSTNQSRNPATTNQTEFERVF
Excerpt: as §1

Chain of CDK12 (Q9NYV4 whole entry): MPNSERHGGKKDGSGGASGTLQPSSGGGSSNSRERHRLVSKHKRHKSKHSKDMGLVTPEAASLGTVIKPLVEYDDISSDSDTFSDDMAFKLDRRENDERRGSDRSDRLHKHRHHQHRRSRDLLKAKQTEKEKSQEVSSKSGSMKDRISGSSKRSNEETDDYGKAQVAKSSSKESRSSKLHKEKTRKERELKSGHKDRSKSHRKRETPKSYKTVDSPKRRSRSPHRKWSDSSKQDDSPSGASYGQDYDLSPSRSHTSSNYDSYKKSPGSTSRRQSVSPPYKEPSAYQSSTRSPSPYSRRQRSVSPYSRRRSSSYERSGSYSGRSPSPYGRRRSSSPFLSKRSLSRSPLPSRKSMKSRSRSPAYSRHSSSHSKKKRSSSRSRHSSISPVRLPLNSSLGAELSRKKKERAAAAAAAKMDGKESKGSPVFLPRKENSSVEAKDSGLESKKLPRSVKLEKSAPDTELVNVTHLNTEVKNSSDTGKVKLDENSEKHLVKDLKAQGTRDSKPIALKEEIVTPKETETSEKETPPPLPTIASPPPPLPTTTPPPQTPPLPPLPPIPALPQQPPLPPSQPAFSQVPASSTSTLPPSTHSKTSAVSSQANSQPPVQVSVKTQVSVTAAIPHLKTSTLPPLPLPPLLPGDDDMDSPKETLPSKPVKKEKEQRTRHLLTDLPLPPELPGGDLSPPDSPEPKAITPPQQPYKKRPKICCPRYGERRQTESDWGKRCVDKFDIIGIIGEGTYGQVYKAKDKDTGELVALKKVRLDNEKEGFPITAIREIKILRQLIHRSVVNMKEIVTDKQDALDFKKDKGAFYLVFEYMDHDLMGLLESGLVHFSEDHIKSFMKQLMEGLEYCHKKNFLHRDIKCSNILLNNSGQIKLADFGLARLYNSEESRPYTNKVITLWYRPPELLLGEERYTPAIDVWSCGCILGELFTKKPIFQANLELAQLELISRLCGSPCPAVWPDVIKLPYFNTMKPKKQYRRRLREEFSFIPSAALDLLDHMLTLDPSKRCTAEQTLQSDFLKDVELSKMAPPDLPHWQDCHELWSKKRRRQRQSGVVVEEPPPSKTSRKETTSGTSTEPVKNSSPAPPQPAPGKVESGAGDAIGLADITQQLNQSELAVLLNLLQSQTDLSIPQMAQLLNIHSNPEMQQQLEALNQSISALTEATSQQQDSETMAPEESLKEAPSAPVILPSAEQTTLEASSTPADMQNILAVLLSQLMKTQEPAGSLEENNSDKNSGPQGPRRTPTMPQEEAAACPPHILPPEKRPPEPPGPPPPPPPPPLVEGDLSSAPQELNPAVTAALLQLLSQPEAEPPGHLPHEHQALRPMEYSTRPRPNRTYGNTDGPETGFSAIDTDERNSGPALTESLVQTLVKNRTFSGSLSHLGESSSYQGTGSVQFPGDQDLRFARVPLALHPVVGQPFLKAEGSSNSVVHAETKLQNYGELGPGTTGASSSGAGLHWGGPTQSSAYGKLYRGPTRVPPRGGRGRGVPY
Chain of CDK12 (O75909 whole entry partner): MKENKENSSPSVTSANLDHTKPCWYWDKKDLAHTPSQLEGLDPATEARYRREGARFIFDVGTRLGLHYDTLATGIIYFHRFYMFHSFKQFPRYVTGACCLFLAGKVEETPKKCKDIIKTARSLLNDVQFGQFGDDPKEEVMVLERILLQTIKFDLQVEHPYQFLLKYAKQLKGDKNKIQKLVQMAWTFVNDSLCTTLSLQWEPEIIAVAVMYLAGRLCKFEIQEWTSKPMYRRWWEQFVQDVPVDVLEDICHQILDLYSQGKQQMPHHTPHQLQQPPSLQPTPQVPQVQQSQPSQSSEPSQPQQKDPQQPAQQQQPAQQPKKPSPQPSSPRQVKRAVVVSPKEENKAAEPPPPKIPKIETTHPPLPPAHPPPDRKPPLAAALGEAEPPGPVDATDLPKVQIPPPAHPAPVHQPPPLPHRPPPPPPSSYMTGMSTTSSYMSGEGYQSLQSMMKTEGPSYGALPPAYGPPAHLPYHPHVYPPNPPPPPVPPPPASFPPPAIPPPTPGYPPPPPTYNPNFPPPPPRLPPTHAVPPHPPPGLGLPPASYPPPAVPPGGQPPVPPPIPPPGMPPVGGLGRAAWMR

S65 and T70 phosphorylation of 4E-BP1 by CDK12 (CDK12): inhibits | S65 and T70 phosphorylation of 4E-BP1 by CDK12 (CDK12; listed as rCRIF1): potently and selectively inhibited
Substance: Growth Arrest and DNA Damage-Inducible Proteins-Interacting Protein 1 [CRIF1]
presence in / binding to CDK2 complexes (CDK2): not present; also recorded: nor was binding to Cdk2 detected | presence in / binding to CDK9 complexes (CDK9): not present; also recorded: does not bind
